These results are taken from patent publication US20150164916A1, “ROFLUMILAST COMPOSITIONS FOR THE TREATMENT OF COPD” (Forest Laboratories Holdings Ltd., priority 2012, published 2015).

Values joined by “and” are separate entries in the source; they are usually repeats but may differ in a detail not shown here. Identical values can stand only once. Like-named read-outs stand apart in the source and are kept apart here.

What all share (format): cell-based, human
Experiment [1] concerns IL-8 release. The experiment is described as follows: LPS- or CSE-induced IL-8 release in isolated peripheral blood neutrophils (ELISA). As to conditions: for Maximal % Inhibition of IL-8 release / IC50: 6 h; for IC50: Homo sapiens, Neutrophil, read-out: -log IC50, inhibition of IL-8 release (converted). The procedure:
(§1) Neutrophils and monocytes were isolated from peripheral venous blood by standard laboratory procedures. In brief, peripheral venous blood was mixed with dextran 500 at 3% (in 0.9% saline) in a proportion of 2:1. This mixture was incubated at room temperature for 30 min until erythrocytes were sedimented. The upper phase was carefully collected and added on Ficoll-Paque Histopaque 1077 (Amershan Pharmacia Biotech, Barcelona, Spain) density gradient in a proportion of 3:1. The two phases generated were centrifuged at 150 g, 4° C. for 30 min. Thus, the interface was collected to isolate monocytes, and the pellet obtained (which is consisted a mixture of neutrophils and low proportion of residual erythrocytes and traces of eosinophils and basophils) was resuspended in an erythrocyte lysis buffer (Biolegend, UK) for 5 min in ice. Cell suspension was washed two times with phosphate buffer (PBS).
(§2) CSE was prepared as previously outlined (Milara et al.; Ortiz et al.). Briefly, the smoke of a research cigarette (2R4F; Tobacco Health Research, University of Kentucky, KY, USA) was generated by a respiratory pump (Apparatus Rodent Respirator 680; Harvard, Germany) through a puffing mechanism related to the human smoking pattern (3 puff/min; 1 puff 35 ml; each puff of 2 s duration with 0.5 cm above the filter) and was bubbled into a flask containing 25 ml of pre-warmed (37° C.) RPMI 1640 culture medium supplemented as describe above. The CSE solution was sterilized by filtration through a 0.22-μm cellulose acetate sterilizing system (Corning, N.Y.). The resultant CSE solution was considered to be 100% CSE and was used for experiments within 30 min of preparation. CSE 10% corresponds approximately to the exposure associated with smoking two packs per day (Su et al., 1998). The quality of the prepared CSE solution was assessed based on the absorbance at 320 nm, which is the specific absorption wavelength of peroxynitrite. Stock solutions with an absorbance value of 3.0±0.1 were used. To test for cytotoxicity from CSE, isolated neutrophils and monocytes were treated with CSE concentrations of up to 5% for 24.
(§3) Peripheral neutrophil cell suspension was adjusted to 500×10^3 cells per well in 24-well plates and incubated in RPMI culture medium for 1 h into the incubator at 37° C., 5% CO2. […] Both the stimulus and drug were remained together for 6 h. Supernatants were collected and centrifuged at 120 g for 5 min, and the free-cell supernatant was used to measure IL-8, MMP-9, IL-1β, GM-CSF and CCL-5.
(§4) IL-8 was determined by using commercially available enzyme-linked immunosorbent assay kit for IL-8 (R&D Systems, UK) according to the manufacturer's protocol. MMP-9, IL-1β, GM-CSF and CCL-5 were measured by LUMINEX technology according to the manufacturer's protocol.
(§5) Data were presented as mean±SEM. IC50 values were calculated for each drug and their combinations. Statistical analysis of results was carried out by analysis of variance (ANOVA) followed by Bonferroni test, by Student's t test, or by non-parametric tests as appropriate (GraphPad Software Inc, San Diego, Calif., USA). Significance was accepted when P<0.05. For clinical correlations of lung function and gene expression from neutrophils the non-parametric Spearman correlation analysis was carried out.

Experiment [2] concerns MMP-9 release. Kind of experiment: LPS- or CSE-induced MMP-9 release in isolated peripheral blood neutrophils (LUMINEX). As to conditions: for Maximal % Inhibition of MMP-9 release / IC50: 6 h; for IC50: Homo sapiens, Neutrophil, read-out: -log IC50, inhibition of MMP-9 release (converted). The procedure: as §1, §2, §3, §4, §5
In experiment [3] the test system is IL-1β release. Kind of experiment: LPS-induced IL-1β release in isolated peripheral blood neutrophils (LUMINEX). As to conditions: for IC50: Homo sapiens, Neutrophil. The procedure:
as §1, §3, §4, §5

The test system of experiment [4] is CCL-5 release. The experiment is described as follows: LPS-induced CCL-5 release in isolated peripheral blood neutrophils (LUMINEX). The note with it: for IC50: Homo sapiens, Neutrophil. The procedure: as §1, §3, §4, §5
Experiment [5] concerns MKP1. The experiment is described as follows: Real time RT-PCR of MKP1 mRNA in CSE-stimulated neutrophils from COPD patients. The note with it: RNO 1 nM and 1 μM, DEX 1 μM, RNO 1 nM plus DEX 1 μM, NAC 1 mM for 1 h, then CSE 5% 6 h. How it is done: (§6) Neutrophils and monocytes were isolated from peripheral venous blood by standard laboratory procedures. In brief, peripheral venous blood was mixed with dextran 500 at 3% (in 0.9% saline) in a proportion of 2:1. This mixture was incubated at room temperature for 30 min until erythrocytes were sedimented. The upper phase was carefully collected and added on Ficoll-Paque Histopaque 1077 (Amershan Pharmacia Biotech, Barcelona, Spain) density gradient in a proportion of 3:1. The two phases generated were centrifuged at 150 g, 4° C. for 30 min. […]
(§7) CSE was prepared as previously outlined (Milara et al.; Ortiz et al.). […] The quality of the prepared CSE solution was assessed based on the absorbance at 320 nm, which is the specific absorption wavelength of peroxynitrite. Stock solutions with an absorbance value of 3.0±0.1 were used. […]
(§8) Total RNA was obtained from isolated neutrophils under basal conditions or after different drug and stimulation periods defined above by using TriPure® Isolation Reagent (Roche, Indianapolis, USA). […] Relative quantification of these transcripts was determined with the 2^−ΔΔCt method using glyceraldehyde phosphate dehydrogenase (GAPDH) as endogenous control (Applied Biosystems; 4352339E) and normalized to control group as previously described (Milara et al., 2009).
(§9) Then, mRNA was isolated and quantified for different genes.

The subject of experiment [6] is MIF. Kind of experiment: Real time RT-PCR of MIF mRNA in CSE-stimulated neutrophils from COPD patients. The note with it: RNO 1 nM and 1 μM, DEX 1 μM, RNO 1 nM plus DEX 1 μM, NAC 1 mM for 1 h, then CSE 5% 6 h. How it is done: as §6, §7, §8, §9
Experiment [7] has as its system p-ERK1/2. Kind of experiment: Western blot of ERK1/2 phosphorylation in CSE-stimulated neutrophils from COPD patients. The note with it: RNO 1 nM and 1 μM, DEX 1 μM, RNO 1 nM plus DEX 1 μM, NAC 1 mM for 1 h, then CSE 5% 20 min. How it is done:
as §6, §7
Western blot analysis was used to detect changes in p-ERK1/2 (42-44 kD). […] Cells were then centrifuged and the total protein was extracted using a lysis buffer consisting of a complete inhibitor cocktail plus 1 mM ethylenediaminetetraacectic acid (Roche Diagnostics Ltd, West Sussex, UK) with 20 mM Tris base, 0.9% NaCl, 0.1% Triton X-100, 1 mM dithiothreitol and 1 μg mL^−1 pepstatin A. The Bio-Rad assay (Bio-Rad Laboratories Ltd., Herts, UK) was used (following manufacturer's instructions) to quantify the level of protein in each sample to ensure equal protein loading. […]

In experiment [8] the test system is PI3Kδ. The experiment is described as follows: Real time RT-PCR of PI3Kδ expression in CSE-stimulated neutrophils from COPD patients. The note with it: RNO 1 nM and 1 μM, DEX 1 μM, RNO 1 nM plus DEX 1 μM, NAC 1 mM, CSE 5%. The procedure:
as §6, §7, §8, §9

Experiment [9] concerns GCβ. Kind of experiment: Real time RT-PCR of GCβ mRNA in CSE-stimulated neutrophils from COPD patients. The note with it: RNO 1 nM and 1 μM, DEX 1 μM, RNO 1 nM plus DEX 1 μM, NAC 1 mM, CSE 5%. How it is done:
as §6, §7, §8, §9

Experiment [10] relates to HDAC2. The experiment is described as follows: Real time RT-PCR of HDAC2 expression in CSE-stimulated neutrophils from COPD patients. The note with it: RNO 1 nM and 1 μM, DEX 1 μM, RNO 1 nM plus DEX 1 μM, NAC 1 mM, CSE 5%. How it is done: as §6, §7, §8, §9
Experiment [11] concerns intracellular ROS. Kind of experiment: Intracellular reactive oxygen species (ROS) by flow cytometry in whole blood neutrophils from COPD patients. The note with it: fMLP 1 μM or CSE 5%, 1 h, NAC 1 mM. How it is done:
Intracellular reactive oxygen species (ROS) were measured by a flow cytometry assay using 2′,7′-dichlorodihydrofluorescein diacetate (H2DCF-DA, Molecular Probes, UK) as previously outlined (Milara et al., 2010). H2DCF-DA was added for 15 min before stimulus to a final concentration of 5 μM to measure intracellular ROS. The bacterial peptide fMLP was added as stimulus at 1 μM […] to generate intracellular ROS (Elbim et al., 2001). In other experiments, to reproduce in vivo conditions, CSE 5% was added to generate intracellular ROS. Intracellular ROS was measured using fresh whole blood from COPD patients. Blood neutrophils were selected using CD16-Alexa Fluor 647 antibody (molecular probes, UK) as neutrophil marker, and CD14-PerCEP-Cy5.5 mouse antihuman (molecular probes, UK) as monocyte marker in an Epics Profile II flow cytometer. A total of 1 ml of whole blood was pre-incubated at 37° C. for 30 min with RNO ([…] (1 mM) and H2DCF-DA followed by fMLP 1 μM or CSE 5% stimulation for another 1 h. Then erythrocytes were lysed using a commercial erythrocyte lysis buffer (Biolegend, UK) for 10 min. Fluorescence intensity was measured in the polymorphonuclear region of whole blood in an Epics Profile II flow cytometer. Results were expressed as DCF fluorescence in relative fluorescence units (RFU).
To this end, whole blood was stimulated with the bacterial peptide fMLP 1 μM or with CSE 5% in presence or absence of RNO or NAC for 1 h.

The mark [12] stands for this setting: CSE 5%, neutrophils from COPD patients.
[13] abbreviates: CSE 5%, neutrophils from HEALTHY.
[14] abbreviates: LPS (1 μg/ml), neutrophils from COPD patients.
[15] abbreviates: LPS (1 μg/ml), neutrophils from HEALTHY.
[16] abbreviates: LPS (1 μg/ml), 6 h, neutrophils from COPD patients.
[17] abbreviates: LPS (1 μg/ml), 6 h, neutrophils from HEALTHY.
The mark [18] stands for this setting: COPD neutrophils stimulated with LPS or CSE, LY-294002 10 μM, NAC 1 mM.

With `C[C@@H]1C[C@H]2[C@@H]3CCC4=CC(=O)C=C[C@]4(C)[C@@]3(F)[C@@H](O)C[C@]2(C)[C@@]1(O)C(=O)CO` [DEX, dexamethasone], the “Maximal % Inhibition of IL-8 release” value in experiment [1] (setting [12]) is reported as 20.6%; in experiment [1] (setting [13]), 94.33 ± 21.7%; in experiment [1] (setting [14]) it was 15%; in experiment [1] (setting [15]), 67.08 ± 11.41%. The IC50 is 15.5 nM in [1] (setting [12]); 17 nM in experiment [1] (setting [13]); 42.7 nM in experiment [1] (setting [14]); 47.9 nM in [1] (setting [15]); 2.19 nM in experiment [2] (setting [12]); 1.38 nM in experiment [2] (setting [13]). The half-maximal inhibitory concentration (IC50) in experiment [2] (setting [14]) was 46.8 nM; in experiment [2] (setting [15]), 6.03 nM; in experiment [3] (6 h, LPS (1 μg/ml), 6 h, neutrophils from COPD patients, read-out: -log IC50, inhibition of IL-1β release (converted)), 45.7 nM; in experiment [3] (6 h, LPS (1 μg/ml), 6 h, neutrophils from HEALTHY, read-out: -log IC50, inhibition of IL-1β release (converted)) it was 10.7 nM; in experiment [3] (LPS, neutrophils from COPD patients, read-out: -log IC50, IL-1β release (converted)) it was 45.7 nM; in experiment [3] (LPS, neutrophils from healthy volunteers, read-out: -log IC50, IL-1β release (converted)), 10.7 nM. The IC50 in [4] (6 h, LPS (1 μg/ml), 6 h, neutrophils from COPD patients, read-out: -log IC50, inhibition of CCL-5 release (converted)) was 32.4 nM; in experiment [4] (6 h, LPS (1 μg/ml), 6 h, neutrophils from HEALTHY, read-out: -log IC50, inhibition of CCL-5 release (converted)), 7.24 nM; in experiment [4] (LPS, neutrophils from COPD patients, read-out: -log IC50, CCL-5 release (converted)) it was 32.4 nM; in experiment [4] (LPS, neutrophils from healthy volunteers, read-out: -log IC50, CCL-5 release (converted)) it was 7.24 nM. In addition, the “Maximal % Inhibition of MMP-9 release” value is 15.4% and 15.44 ± 6.95 % in experiment [2] (setting [12]); 83.9 ± 5.79% in [2] (setting [13]); 8.8% in experiment [2] (setting [14]); 96.8 ± 5.1% in [2] (setting [15]). Moreover, the “Maximal % Inhibition of IL-1β release” value in [3] (setting [16]) is 77.16 ± 5.69%; in [3] (setting [17]), 79.58 ± 5.57%. The “Maximal % Inhibition of CCL-5 release” value came out at 86.30 ± 10.16% in [4] (setting [16]) and 83.78 ± 8.64% in experiment [4] (setting [17]).

Take `CC(=O)N[C@@H](CS)C(=O)O` [NAC, N-acetyl-1-cysteine]: in experiment [1] (setting [18]), the “rescue of DEX anti-inflammatory effect on IL-8 release” value is recorded as “able to rescue DEX anti-inflammatory effect”. In addition, the “rescue of DEX anti-inflammatory effect on MMP-9 release” value in experiment [2] (setting [18]) is given as “able to rescue DEX anti-inflammatory effect”. For the same molecule, in [5], the “effect on CSE-induced down-regulation of MKP1 mRNA expression” value is “effectively increased”. Moreover, the “effect on CSE-induced increase of MIF mRNA expression” value in [6] is given as “reduced”. Moreover, the “effect on CSE-induced phosphorylation of ERK1/2” value in [7] is reported as “inhibited”. The “effect on CSE-induced PI3Kδ upregulation” value in experiment [8] was “inhibited”. For the same molecule, the “effect on CSE-induced GCβ upregulation” value in experiment [9] is “inhibited”. For the same molecule, in experiment [10], the “effect on CSE-induced HDAC2 downregulation” value is listed as “inhibited”. In addition, the “effect on ROS generation in neutrophils” value in experiment [11] is “inhibited”.
